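96-well plates; 48 h exposure; 5 concentrations. Endpoints by linear interpolation between flanking doses. Not reached: highest tested concentration assigned. At the TGI there is no net growth.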
What was measured:
Assay in all cases: inhibition of tumour cell growth, NCI panel, 48 h
[1] = tested on: MDA-MB-435
[2] = tested on: LOX IMVI melanoma
[3] = tested on: OVCAR-4 ovarian
[4] = tested on: UO-31 renal
[5] = tested on: NCI/ADR-RES ovarian
[6] = tested on: SF-268 CNS
[7] = tested on: T-47D breast
[8] = tested on: SNB-19 CNS
[9] = tested on: RXF 393 renal
[10] = tested on: OVCAR-5 ovarian
[11] = tested on: K-562 leukemia
[12] = tested on: SK-MEL-5 melanoma
[13] = tested on: IGROV1 ovarian
[14] = tested on: SNB-75 CNS
[15] = tested on: MDA-MB-231 breast
[16] = tested on: ACHN renal
[17] = tested on: MDA-N
[18] = tested on: COLO 205 colon
[19] = tested on: HS 578T breast
[20] = tested on: EKVX NSCLC
[21] = tested on: HT29 colon
[22] = tested on: NCI-H460 lung
[23] = tested on: OVCAR-8 ovarian
[24] = tested on: CAKI-1 renal
[25] = tested on: RPMI-8226 leukemia
[26] = tested on: CCRF-CEM leukemia
[27] = tested on: MOLT-4 leukemia
[28] = tested on: A549 NSCLC
[29] = tested on: HL-60(TB) leukemia
[30] = tested on: UACC-257 melanoma
[31] = tested on: HCC-2998 colon
[32] = tested on: 786-0 renal
[33] = tested on: NCI-H226 lung
[34] = tested on: MCF7 breast
[35] = tested on: TK-10 renal
[36] = tested on: KM12 colon
[37] = tested on: UACC-62 melanoma
[38] = tested on: M14 melanoma
[39] = tested on: NCI-H23 lung
[40] = tested on: U251 CNS
[41] = tested on: SK-OV-3 ovarian
[42] = tested on: BT-549 breast
[43] = tested on: DU-145 prostate
[44] = tested on: SK-MEL-2 melanoma
[45] = tested on: SF-295 CNS
[46] = tested on: SN12C renal
[47] = tested on: PC-3 prostate
[48] = tested on: HOP-92 NSCLC
[49] = tested on: SW-620 colon
[50] = tested on: SF-539 CNS
[51] = tested on: HCT-116 colon
[52] = tested on: HOP-62 NSCLC
[53] = tested on: A498 renal
[54] = tested on: HCT-15 colon
[55] = tested on: NCI-H522 lung

Measured: TGI

Cc1cc(O)c(/C=N/c2nc(-c3ccc([N+](=O)[O-])cc3)cs2)c(=O)o1
75 µM: [29]
> 100 µM: [1] | [2] | [3] | [4] | [5] | [6] | [7] | [8] | [9] | [10] | [11] | [12] | [13] | [14] | [15] | [16] | [17] | [18] | [19] | [20] | [21] | [22] | [23] | [24] | [25] | [26] | [27] | [28] | [30] | [31] | [32] | [33] | [34] | [35] | [36] | [37] | [38] | [39] | [40] | [41] | [42] | [43] | [44] | [45] | [46] | [47] | [48] | [49] | [50] | [51] | [52] | [53] | [54] | [55]
